# System: HLA-A2
# Assay: HLA-I binding assay with biotin-tagged HLA-A2 monomers
# Parameters: species or system human
# Details: in-silico predicted HLA-A2 binders not listed in Fig. 1G
row,Sequence,"HLA-A2 binding in vitro, in words"
1,VIASYPWPI [CVB1–2-3–5-6_2051–2059],did not confirm as binders
2,VMGDALGSV [ZnT8_245–253],binding
3,GIIYIIYKL [CVB1–2-3–4-5–6_1502–1510],did not confirm as binders
4,KLPDALSQM [CVB1_150–158],did not confirm as binders

# From publication PMC10473604 (bioRxiv, 2023)
